Experiments:
L2 peptide = assay: FRET interaction between H1 and L2 peptides on microplate; assay type: binding; conditions: with increasing concentration of H1 peptide; FAM/TAMRA labels
Text: FIG. 4A is diagrams illustrating a method for confirming a specific interaction between L1 and H2 peptides and a specific interaction between L2 and H1 peptides and the measurement results thereof, and FIG. 4B is diagrams for explaining a specific interaction between L1 and H2 peptides and a specific interaction between L2 and H1 peptides analyzed using PyMOL software. Here, at the ends of the L1 and L2 peptides, a first fluorescent label, FAM (λex=488 nm, λem=532 nm) was modified, and at the ends of the H1 and H2 peptides, a second fluorescent label, TAMRA λex=532 nm, λem=570 nm) was modified. Meanwhile, the first peptide (L1 or L2) was immobilized on a parylene-H-coated microplate through a covalent bond between a formyl group of parylene-H and a primary amine group of a lysine residue in the peptide, and the second peptide (H2 or H1) was incubated with the immobilized first peptide (L1 or L2) to allow specific interactions between them.

[1] = tested on: rabbit anti-HRP antibodies (Fab region); assay: Papain treatment of immobilized antibody with bound fluorescently labeled switching peptide (FIG. 6B); assay type: binding; conditions: after papain treatment compared to before
Text: FIG. 6A is a schematic diagram illustrating states before and after treatment of the antibody to which the four types of peptides of Example 1 were bound, respectively, with papain, which is a protease, and FIG. 6B is graphs illustrating a fluorescence intensity measured at a bottom (B) of the microplate and in a solution (S) after the papain treatment. In the case of this experiment, after immobilization of the antibodies (rabbit anti-HRP antibodies) on the microplate, binding between the antibody and the switching peptide was induced by treatment with a fluorescently labeled switching peptide, the unbound switching peptide was removed, and then the Fab region was hydrolyzed from the immobilized antibodies by adding papain, which is a protease.
Referring to FIG. 6A, the fluorescence at the bottom (B) of the microplate is expected to decrease after the papain reaction because the fluorescently labeled switching peptides are bound to the Fab region of antibodies, and the fluorescence in the solution is expected to increase because the Fab region to which the switching peptide is bound is hydrolyzed and dissolved into the solution. This prediction is proven to be true from the graphs of FIG. 6B.

Anti-HRP antibody(r) = assay: Antigen-induced release of fluorescently labeled peptide from immobilized antibody (Table 2), HRP antigen; assay type: binding, rabbit
Anti-HBsAg antibody(g) = assay: Antigen-induced release of fluorescently labeled peptide from immobilized antibody (Table 2), HBsAg antigen; assay type: binding, goat
Anti-hCG antibody(m) = assay: Antigen-induced release of fluorescently labeled peptide from immobilized antibody (Table 2), hCG antigen; assay type: binding; conditions: anti-hCG antibody (mouse)
Anti-CRP antibody(r) = assay: Antigen-induced release of fluorescently labeled peptide from immobilized antibody (Table 2), CRP antigen; assay type: binding; conditions: anti-CRP antibody (rabbit)
[2] = tested on: anti-HRP antibody from a rabbit; assay: One-step immunoassay with varying HRP concentration (FIGS. 7A-7C); assay type: binding; conditions: HRP 0.3 to 100 μM
Text: FIG. 7A is a schematic diagram for explaining an immunoassay method using fluorescently labeled peptide compounds of Example 1, and FIGS. 7B and 7C are graphs illustrating the fluorescence intensities in a solution and at a bottom of the microplate depending on a concentration of the antigen measured by the immunoassay method illustrated in FIG. 7A. In this experiment, an anti-HRP antibody from a rabbit immobilized on a microplate was used as the binding antibody and HRP was used as the antigen.

[3] = Net charge of switching peptides at pH 6.0 to 8.0; assay type: physicochemical; conditions: pH 6.0 to 7.0; histidine residue pKa 6.02
Method: Regarding the antibody binding properties of the switching peptides at pH 6.0 to 8.0, a net charge of H1 and L2 peptides decreased to 0.5 at pH 6.0 to 7.0 due to a histidine residue with a pKa value of 6.02. In addition, the net charge of the H2 and L2 peptides decreased to 0.5 at pH 7.0 to 8.0 due to a cysteine residue with a pKa value of 8.18. […] Therefore, the immunoassay was performed by selecting an L1 peptide having specific dissociation from hepatitis B surface antigen-antibody binding and stability within a pH range of human serum immunoassay.

[4] = anti-HRP antibody (rabbit), HRP
[5] = anti-HBsAg antibody (goat), HBsAg

SYWIHWVKQRPGQGLEWIGE [H1, SYWIH WVKQR PGQGL EWIGE]
FRET intensity (L2 peptide): increase | decrease of fluorescence intensity at the bottom of the microplate [1]: 84.3% | increase of fluorescence intensity in the solution [1]: 2,184% | remaining fluorescence intensity at plate bottom after antigen binding (% of before) (Anti-HRP antibody(r); anti-HRP antibodies from rabbits, after antigen): 12.3% | Bottom (B) of microplate Change (%) (Anti-HRP antibody(r); [4]): −87.7% | fluorescence intensity Bottom (B) of microplate After antigen binding (Anti-HRP antibody(r); [4]): 1451 | fluorescence intensity Bottom (B) of microplate Before antigen binding (Anti-HRP antibody(r); [4]): 11840 | fluorescence intensity In solution (S) After antigen binding (Anti-HRP antibody(r); [4]): 21965 | fluorescence intensity In solution (S) Before antigen binding (Anti-HRP antibody(r); [4]): 2596 | fluorescence intensity remaining at bottom of plate after antigen (% of before) (Anti-HBsAg antibody(g); anti-HBsAg antibodies from goats, after antigen): 41.1% | Bottom (B) of microplate Change (%) (Anti-HBsAg antibody(g); [5]): −58.9% | fluorescence intensity Bottom (B) of microplate After antigen binding (Anti-HBsAg antibody(g); [5]): 4618 | fluorescence intensity Bottom (B) of microplate Before antigen binding (Anti-HBsAg antibody(g); [5]): 11225 | fluorescence intensity In solution (S) After antigen binding (Anti-HBsAg antibody(g); [5]): 11453 | Bottom (B) of microplate Change (%) (Anti-hCG antibody(m)): −65.6% | In solution (S) Change (%) (Anti-hCG antibody(m)): +206% | fluorescence intensity Bottom (B) of microplate After antigen binding (Anti-hCG antibody(m)): 1940 | fluorescence intensity Bottom (B) of microplate Before antigen binding (Anti-hCG antibody(m)): 5646 | fluorescence intensity In solution (S) After antigen binding (Anti-hCG antibody(m)): 3921 | fluorescence intensity In solution (S) Before antigen binding (Anti-hCG antibody(m)): 1281 | Bottom (B) of microplate Change (%) (Anti-CRP antibody(r)): −26.8% | In solution (S) Change (%) (Anti-CRP antibody(r)): +152% | fluorescence intensity Bottom (B) of microplate After antigen binding (Anti-CRP antibody(r)): 3595 | fluorescence intensity Bottom (B) of microplate Before antigen binding (Anti-CRP antibody(r)): 4912 | fluorescence intensity In solution (S) After antigen binding (Anti-CRP antibody(r)): 5659 | fluorescence intensity In solution (S) Before antigen binding (Anti-CRP antibody(r)): 2242 | fluorescence intensity in the solution depending on the concentration of the antigen (HRP) [2]: increase | Kd ([2]; estimated, read-out: Equilibrium dissociation constants): 1650 nM | net charge [3]: 0.5
